Experimental data from patent US3941842A, “P,P'-Disubstituted α-trichloromethylbenzylanilines” (priority 1972, dated 1976).

Key:
[1] = system: Phormia regina; assay: whole plant or invertebrate; conditions: for LD50: Phormia regina, read-out: Topical LD50, Phormia regina, Alone; for LD50 / Topical LD50, Phormia regina, with pb: topical; for SR, Phormia regina: synergistic ratio: LD50 alone/LD50 synergized with piperonyl butoxide; for Topical LD50, Phormia regina, with pb: synergized with piperonyl butoxide
Protocol: The compounds of the present invention were tested for insecticidal activity by standard methods, and compared with the insecticidal activities of DDT and symmetrical analogs of DDT, such methoxychlor. Toxicological methods for the determination of the topical LD50 values to adult female SNAIDM and RSP houseflies, Musca domestica L. and to Phormia regina, and LC50 values to Culex pipiens quinquefasciatus Say, and Anopheles albimanus Weid mosquitoes were described by Metcalf el al., 44 Bull. World Health Org. […] The methods for evaluation of metabolism by mouse liver homogenate and by female RSP housefly and salt-marsh caterpillar larvae Estigmene acrea Drury, were described by Kapoor et al., 18 J. Agr. […] The techniques for model eocsystem evluation were described by Metcalf et al., 5 J. Environ. Sci. Tech.
(§1) Since piperonyl butoxide serves to block the action of MFO, the synergized LD50 values express the intrinsic toxicity of the compounds. With the detoxifying action of MFO enzymes blocked, the intrinsic toxicity of the compounds can thus be measured.

[2] = system: Anopheles albimanus larvae; assay: LC50 to Anopheles albimanus larvae; format: in vivo, Anopheles albimanus Weid
From the text: (§2) World Health Org. 363 (1971). […] Food Chem. 1145 (1970). […] Sci. Tech. 709 (1971). The results are detailed in Table II. ##SPC1##

[3] = system: Culex fatigans larvae; assay: LC50 to Culex fatigans larvae; format: in vivo, Culex pipiens quinquefasciatus Say
From the text: as §2

[4] = system: Musca domestica Rsp; assay: Topical LD50 to adult female RSP houseflies; conditions: for LD50: Musca domestica, read-out: Topical LD50, Musca domestica Rsp, Alone; for LD50 / Topical LD50, Musca domestica Rsp, with pb: topical; for Topical LD50, Musca domestica Rsp, with pb: RSP strain, synergized with piperonyl butoxide; for SR, Musca domestica Rsp: synergistic ratio: LD50 alone/LD50 synergized with piperonyl butoxide
Protocol: (§3) The compounds of the present invention were tested for insecticidal activity by standard methods, and compared with the insecticidal activities of DDT and symmetrical analogs of DDT, such methoxychlor. Toxicological methods for the determination of the topical LD50 values to adult female SNAIDM and RSP houseflies, Musca domestica L. and to Phormia regina, and LC50 values to Culex pipiens quinquefasciatus Say, and Anopheles albimanus Weid mosquitoes were described by Metcalf el al., 44 Bull. World Health Org. 363 (1971). The methods for evaluation of metabolism by mouse liver homogenate and by female RSP housefly and salt-marsh caterpillar larvae Estigmene acrea Drury, were described by Kapoor et al., 18 J. Agr. Food Chem. 1145 (1970). The techniques for model eocsystem evluation were described by Metcalf et al., 5 J. Environ. Sci. Tech. 709 (1971).
as §1

[5] = system: Musca domestica Snaidm; assay: Topical LD50 to adult female SNAIDM houseflies; conditions: for LD50: Musca domestica, read-out: Topical LD50, Musca domestica Snaidm, Alone; for LD50 / Topical LD50, Musca domestica Snaidm, with pb: topical; for Topical LD50, Musca domestica Snaidm, with pb: SNAIDM strain, synergized with piperonyl butoxide; for SR, Musca domestica Snaidm: synergistic ratio: LD50 alone/LD50 synergized with piperonyl butoxide
Protocol: as §3, §1

[6] = Model ecosystem: distribution, ecological magnification and Biodegradability Index; conditions: 33 days, 5.0 mg 3H-ethoxyaniline to Sorghum
From the text: After the amounts of the various metabolites have been calculated and a determination is made as to which of the metabolites are to be designated as "polar" and which are to be designated as "non-polar", a Biodegradability Index (amount of polar metabolites/amount of nonpolar metabolites) may be calculated. Remembering that nonpolar compounds, such as DDT are readily soluble in the fatty tissues, but are not readily soluble in water based solutions, and that the cell fluid is essentially a water based solution, the lower the Biodegradability Index, the lower the amount of biodegradability of the compound. The higher the amount of polarity, the greater the likelihood that the polar compound will dissolve in water, a very polar compound, and be eliminated from the cell.
The environmental fate of any new pesticide is a factor of paramount importance in determining how and where it might be used. The behavior of ^3 H-α-trichloromethyl-p-ethoxybenzyl-p-ethoxyaniline has been studied by the model ecosystem technique following application of 5.0 mg. of labeled compound to Sorghum plants. A summary of
metabolites from the organisms in the model ecosystem after 33 days were
identified by cochromatography with standards of known constitution, by
appropriate chromogenic reagents, and by high-resolution mass
spectrometry. The data of Table IV indicate the O-dealkylation of
Food Chem. 1 (1972). Ethoxychlor was found in the snail to 58.6 ppm and in the fish to 0.92 ppm, along with its ethylene and the mono- and bis-phenols formed by O-dealkylation. The ecological magnification (E.M.) of ethoxychlor, defined as the ratio of the parent material in the fish to the concentration in the water, was 1500-fold as compared with an E.M. of only 0.7-fold for the ethoxyaniline.
Comparing the Biodegradability Indices (B.I.=total recovered polar metabolites/total recovered nonpolar metabolites) the values are 0.44 for ethoxychlor and 2.0 for ethoxyaniline.

[7] = system: Musca domestica (SNAIDM and RSP strains), Phormia regina, Culex fatigans and Anopheles albimanus; assay: Insecticidal activity over the test insects (Table II, summarised in words); format: in vivo; conditions: overall, test insects of Table II
Protocol: as §3, §1

Cc1ccc(C(Nc2ccc(Cl)cc2)C(Cl)(Cl)Cl)cc1 (stereo not shown) [Compound XV]
LD50 [1]: 72.5 mg/kg
SR, Phormia regina [1]: 1.1
Topical LD50, Phormia regina, with pb [1]: 62.5 μg per g
LC50 Anopheles albimanus larvae [2]: 0.13 ppm
LC50 Culex fatigans larvae [3]: 0.066 ppm
LD50 [4]: ~500 mg/kg
Topical LD50, Musca domestica Rsp, with pb [4]: 36.0 μg per g
SR, Musca domestica Rsp [4]: 14
LD50 [5]: 90 mg/kg
Topical LD50, Musca domestica Snaidm, with pb [5]: 21.0 μg per g
SR, Musca domestica Snaidm [5]: 4.3

CCOc1ccc(C(=O)O)cc1 [C2 H5 OC6 H4 C(O)OH, p-ethoxybenzoic acid]
Concentration of ethoxyaniline equivalents in Culex (mosquito) [6]: 0.06 ppm
Concentration of ethoxyaniline equivalents in Gambusia (fish) [6]: 0.03 ppm
Concentration of ethoxyaniline equivalents in H2O [6]: 0.123 ppm
Concentration of ethoxyaniline equivalents in Oedogonium (algae) [6]: 0.38 ppm
Concentration of ethoxyaniline equivalents in Physa (snail) [6]: 1.800 ppm

CCOc1ccc(NC(c2ccccc2OCC)C(Cl)(Cl)Cl)cc1 (stereo not shown) [XX]
LD50 [1]: > 250 mg/kg
Topical LD50, Phormia regina, with pb [1]: > 250 μg per g
LC50 Anopheles albimanus larvae [2]: > 1.0 ppm
insecticidal effectiveness / toxicity (in words) [7]: Toxicity was greatly decreased
LC50 Culex fatigans larvae [3]: > 1.0 ppm
LD50 [4]: > 500 mg/kg
Topical LD50, Musca domestica Rsp, with pb [4]: > 500 μg per g
LD50 [5]: > 500 mg/kg
Topical LD50, Musca domestica Snaidm, with pb [5]: 500 μg per g

COc1ccc(C(Nc2ccc(C)c(C)c2)C(Cl)(Cl)Cl)cc1 (stereo not shown) [XXIII]
LD50 [1]: 77.5 mg/kg
Topical LD50, Phormia regina, with pb [1]: 15.5 μg per g
LC50 Anopheles albimanus larvae [2]: 0.18 ppm
insecticidal effectiveness / toxicity (in words) [7]: Toxicity was also substantially decreased
LC50 Culex fatigans larvae [3]: 0.30 ppm
LD50 [4]: 100 mg/kg
Topical LD50, Musca domestica Rsp, with pb [4]: 28.0 μg per g
SR, Musca domestica Rsp [4]: 3.6
LD50 [5]: 85 mg/kg
Topical LD50, Musca domestica Snaidm, with pb [5]: 6.5 μg per g
SR, Musca domestica Snaidm [5]: 13.0

COc1ccc(C(Nc2ccc(Cl)cc2)C(Cl)(Cl)Cl)cc1 (stereo not shown) [V]
LD50 [1]: 55 mg/kg
SR, Phormia regina [1]: 3.6
Topical LD50, Phormia regina, with pb [1]: 15.2 μg per g
LC50 Anopheles albimanus larvae [2]: 0.12 ppm
LC50 Culex fatigans larvae [3]: 0.068 ppm
LD50 [4]: 35.5 mg/kg
Topical LD50, Musca domestica Rsp, with pb [4]: 12.0 μg per g
SR, Musca domestica Rsp [4]: 3.0
LD50 [5]: 23 mg/kg
Topical LD50, Musca domestica Snaidm, with pb [5]: 10.5 μg per g
SR, Musca domestica Snaidm [5]: 2.2

CCOc1ccc(NC(c2ccc(O)cc2)C(Cl)(Cl)Cl)cc1 (stereo not drawn) [C2 H5 OC6 H4 NHCH(CCl3)C6 H4 OH, α-trichloromethyl-p-hydroxybenzyl-p-ethoxyaniline]
Concentration of ethoxyaniline equivalents in Culex (mosquito) [6]: 0.13 ppm
Concentration of ethoxyaniline equivalents in Gambusia (fish) [6]: 0.08 ppm
Concentration of ethoxyaniline equivalents in H2O [6]: 0.031 ppm
Concentration of ethoxyaniline equivalents in Oedogonium (algae) [6]: 0.43 ppm
Concentration of ethoxyaniline equivalents in Physa (snail) [6]: 2.02 ppm

CCOc1ccc(NC(c2ccc(C)cc2)C(Cl)(Cl)Cl)cc1 (stereo not shown) [XII]
LD50 [1]: 95 mg/kg
SR, Phormia regina [1]: 2.2
Topical LD50, Phormia regina, with pb [1]: 42.5 μg per g
LC50 Anopheles albimanus larvae [2]: 0.30 ppm
LC50 Culex fatigans larvae [3]: 0.33 ppm
LD50 [4]: 70 mg/kg
Topical LD50, Musca domestica Rsp, with pb [4]: 19.5 μg per g
SR, Musca domestica Rsp [4]: 3.6
LD50 [5]: 35 mg/kg
Topical LD50, Musca domestica Snaidm, with pb [5]: 14.5 μg per g
SR, Musca domestica Snaidm [5]: 2.4

CCOc1ccc(NC(c2ccc(OC)cc2)C(Cl)(Cl)Cl)cc1 (stereo not shown) [XIV]
LD50 [1]: 112 mg/kg
SR, Phormia regina [1]: 5.6
Topical LD50, Phormia regina, with pb [1]: 20.0 μg per g
LC50 Anopheles albimanus larvae [2]: 1.0 ppm
LC50 Culex fatigans larvae [3]: 0.34 ppm
LD50 [4]: 37 mg/kg
Topical LD50, Musca domestica Rsp, with pb [4]: 12.0 μg per g
SR, Musca domestica Rsp [4]: 3.1
LD50 [5]: 30 mg/kg
Topical LD50, Musca domestica Snaidm, with pb [5]: 3.9 μg per g
SR, Musca domestica Snaidm [5]: 7.7

CCOc1ccc(C(Nc2ccc(OC)cc2)C(Cl)(Cl)Cl)cc1 (stereo not shown) [XIII]
LD50 [1]: 22 mg/kg
SR, Phormia regina [1]: 1.8
Topical LD50, Phormia regina, with pb [1]: 12.5 μg per g
LC50 Anopheles albimanus larvae [2]: 0.68 ppm
LC50 Culex fatigans larvae [3]: 0.42 ppm
LD50 [4]: 41 mg/kg
Topical LD50, Musca domestica Rsp, with pb [4]: 12.5 μg per g
SR, Musca domestica Rsp [4]: 3.3
LD50 [5]: 23.5 mg/kg
Topical LD50, Musca domestica Snaidm, with pb [5]: 5.5 μg per g
SR, Musca domestica Snaidm [5]: 4.2

CCOc1ccc(C(Nc2ccc(C)cc2)C(Cl)(Cl)Cl)cc1 (stereo not drawn) [XI, α-trichloromethyl-p-ethoxybenzyl-p-methylaniline]
LD50 [1]: 7.7 mg/kg
Topical LD50, Phormia regina, with pb [1]: 4.2 μg per g
LC50 Anopheles albimanus larvae [2]: 0.085 ppm
LC50 Culex fatigans larvae [3]: 0.073 ppm
LD50 [4]: 14 mg/kg
Topical LD50, Musca domestica Rsp, with pb [4]: 4.4 μg per g
SR, Musca domestica Rsp [4]: 3.2
LD50 [5]: 12.5 mg/kg
Topical LD50, Musca domestica Snaidm, with pb [5]: 2.5 μg per g
SR, Musca domestica Snaidm [5]: 5.0

CCOc1ccc(NC(c2ccc3c(c2)OCO3)C(Cl)(Cl)Cl)cc1 (stereo not shown) [Compound XVII]
LD50 [1]: > 250 mg/kg
SR, Phormia regina [1]: > 7.7
Topical LD50, Phormia regina, with pb [1]: 32.5 μg per g
LC50 Anopheles albimanus larvae [2]: 0.25 ppm
LC50 Culex fatigans larvae [3]: 0.23 ppm
LD50 [4]: 35.5 mg/kg
Topical LD50, Musca domestica Rsp, with pb [4]: 11.0 μg per g
SR, Musca domestica Rsp [4]: 3.2
LD50 [5]: 19.5 mg/kg
Topical LD50, Musca domestica Snaidm, with pb [5]: 3.8 μg per g
SR, Musca domestica Snaidm [5]: 5.1

CCOc1ccc(NC(c2ccc(Cl)cc2)C(Cl)(Cl)Cl)cc1 (stereo not shown) [VIII]
LD50 [1]: 37.5 mg/kg
SR, Phormia regina [1]: 2.8
Topical LD50, Phormia regina, with pb [1]: 13.2 μg per g
LC50 Anopheles albimanus larvae [2]: 0.26 ppm
LC50 Culex fatigans larvae [3]: 0.22 ppm
LD50 [4]: 45 mg/kg
Topical LD50, Musca domestica Rsp, with pb [4]: 13.0 μg per g
SR, Musca domestica Rsp [4]: 3.5
LD50 [5]: 19.5 mg/kg
Topical LD50, Musca domestica Snaidm, with pb [5]: 4.1 μg per g
SR, Musca domestica Snaidm [5]: 4.8

COc1ccc(C(Nc2ccc(C)cc2)C(Cl)(Cl)Cl)cc1 (stereo not shown) [IX]
LD50 [1]: 16.5 mg/kg
SR, Phormia regina [1]: 1.4
Topical LD50, Phormia regina, with pb [1]: 11.50 μg per g
LC50 Anopheles albimanus larvae [2]: 0.28 ppm
LC50 Culex fatigans larvae [3]: 0.26 ppm
LD50 [4]: 50 mg/kg
Topical LD50, Musca domestica Rsp, with pb [4]: 12.0 μg per g
SR, Musca domestica Rsp [4]: 4.5
LD50 [5]: 35 mg/kg
Topical LD50, Musca domestica Snaidm, with pb [5]: 8.5 μg per g
SR, Musca domestica Snaidm [5]: 4.1

Cc1ccc(NC(c2ccc(Cl)cc2)C(Cl)(Cl)Cl)cc1 (stereo not shown) [Compound XVI]
LD50 [1]: 36.2 mg/kg
SR, Phormia regina [1]: 1.45
Topical LD50, Phormia regina, with pb [1]: 25 μg per g
LC50 Anopheles albimanus larvae [2]: 0.14 ppm
LC50 Culex fatigans larvae [3]: 0.18 ppm
LD50 [4]: 125 mg/kg
Topical LD50, Musca domestica Rsp, with pb [4]: 30 μg per g
SR, Musca domestica Rsp [4]: 4.2
LD50 [5]: 65 mg/kg
Topical LD50, Musca domestica Snaidm, with pb [5]: 16 μg per g
SR, Musca domestica Snaidm [5]: 4.1
